Measurements from patent publication US9480712B2, “Biomedical composition” (INDUSTRIAL TECHNOLOGY RESEARCH INSTITUTE, priority 2013, dated 2016).
pIC50: −log10 of the molar value.

Legend:
U87MC cells = assay: Cytotoxicity analysis (MTT); type: cell-based; conditions: Homo sapiens, U-87 MG, U87 cells, 48 hours
Description: U87 cells were inoculated in a 96-well culture plate with a density of 1×10^4 cells/well, and cultured in a 37° C., 5% CO2 incubator for 1 day. […] Next, the old medium was removed from the culture plate and the culture plate was washed with medium three times. After the medium was removed from the culture plate, 100 μL of 0.5 mg/mL MTT reagent was added to the plate, and the culture plate was incubated at 37° C. for 4 hours. Then, the old medium was removed and 100 μL of 0.1 N HCl/isopropanol was added to the culture plate to dissolve the precipitate. Finally, the culture plate was placed in a ELISA reader to determine the absorbance at wavelength 570 nm, and the absorbance was converted into cell viability based on the following formula: Cell viability (%)=Intensity of sample/Intensity of control×100%.

[1] = Concentration of Pt in rat plasma by ICP-AES, pharmacokinetic parameters; type: in vivo, rats; conditions: 0.5 mg/rat
Description: The rats were grouped, and 0.5 mg/rat oxaliplatin, Formulations PtHC101, PtHC305 and PtHC603, were respectively administered. After that, at different time points the blood samples were sampled from the rats, the concentrations of Pt in the plasma were analyzed by inductively coupled plasma with atomic emission spectroscopy (ICP-AES), and the original drug concentration in blood (CO), half-life (T ½), area under curve (AUC), volume of distribution (Vz), and clearance (Cl) of each formulation were calculated.

[2] = system: HT-29 cells, human colon adenocarcinoma cell line; assay: Tumor growth inhibition in nude mice implanted with HT-29 cells; type: in vivo; conditions: 2 mg Pt/kg, tail vein, twice a week, 6 doses; day 14 to day 42
Description: HT-29 cells, human colon adenocarcinoma cell line, were implanted into the backs of nude mice. After the size of the tumor reached 100-200 mm^3, the mice were administered hyaluronic acid derivative/DACHPt complex nano-carriers formed by Formulation PtHC604 (2 mg Pt/kg), oxaliplatin (2 mg Pt/kg) or 10% sucrose through tail vein injections twice a week, for a total of 6 doses. The size changes of the tumors were measured, regularly, and tumor growth inhibition (TGI) rate was calculated. Calculation formula is as follows: Tumor growth inhibition (TGI) (%)=[1−(Δ Tumor volume for drug treatment group/Δ Tumor volume for vehicle treatment group)]×100

SMILES	pIC50 (U87MC cells)	AUClast [1]	C0 [1]	Cl_pred [1]	HL_Lambda_z [1]	Vz_pred [1]	tumor growth inhibition (TGI) rate [2]
COc1cccc2c1C(=O)c1c(O)c3c(c(O)c1C2=O)C[C@@](O)(C(=O)CO)C[C@@H]3O[C@H]1C[C@H](N)[C@H](O)[C@H](C)O1 [Doxorubicin, doxorubicin]	7.00	–	–	–	–	–	–
O=C1[O][Pt]2([NH][C@@H]3CCCC[C@H]3[NH]2)[O]C1=O [Oxaliplatin, oxaliplatin]	–	4202.6 ± 1280.2 ng·h/mL	6317.9 ± 4430.9 ng/mL	3.695 ± 1.13 mL/min/kg	8.2 ± 1.1 h	2.6208 ± 0.8685 L/kg	42±8%
